The record followed here is patent US12465590B2, “Oxalamido-substituted tricyclic inhibitors of hepatitis b virus” (priority 2019, dated 2025).

What is called EC50 is the concentration needed to bring the measured effect to its halfway point.

Holding throughout (settings): Hepatitis B virus, HepG2, read-out: EC50 ± StD (nM)
In one test the test system is HBV genotype E. Nature of the test: Antiviral effect on HBV genotypes, transiently transfected HepG2 cells. The format is cell-based. An excerpt:
(§1) HepG2 cell line was used for HBV genotypes and core variants inhibition assays. HepG2 cell line is maintained in DMEM supplemented with 10% of fetal bovine serum, 1% of glutamine and 1% of penicillin/streptomycin.
(§2) For antiviral effect on HBV A-E genotypes, HepG2 cell line and DNA plasmids expressing HBV genome of different genotypes, from A to E, were used. HepG2 were transiently transfected with plasmid DNA harboring 1.1-mer-overlength genomic sequences of each HBV genotypes A to E isolates cloned into the pcDNA3.1/Zeo(−) vector as described in J Virol. 2010, 84, 3879-88 (https://doi.org/10.1128/JVI.02528-09). Each plasmid contains the 1.1×HBV genome under the control of a CMV promoter. The list of plasmid used is the following: pcDNA3.1-HBV1.1-A2 (HBV genotype A2), pcDNA3.1-HBV1.1—B2 (HBV genotype B2), pcDNA3.1-HBV1.1—C2 (HBV genotype C2), pcDNA3.1-HBV1.1-D (described as p26 in the above reference, HBV genotype D), pcDNA3.1-HBV1.1-E (HBV genotype E). Methods of generating plasmids are well know in the art (as for example in Viruses 2020, 12, 353, doi:10.3390/v12030353; Antiviral Research 144 (2017) 205-215, http://dx.doi.org/10.1016/j.antiviral.2017.06.016) and the selection of a suitable method is not a limitation on the present invention.
(§3) HepG2 cells were seeded in polylysine coated 96 multiwell plates at a density of 2*10^4 cells/well and incubated overnight at 37° C. The following day cells were transfected with the HBV plasmids (100 ng/well) using the Lipofectamine 3000 Reagent (Thermo Fisher Scientific) and following manufacturer instructions. After 5 h transfection mixtures were removed and cells were treated with serially diluted compounds in 0.5% DMSO at 8-point dose-response as previously described. After 96 hours of incubation at 37° C. with compound the supernatants were collected, centrifuged for cell debris clarification and incubated with DNase I amplification grade 1 Unit/50 μl (Sigma) for 1 h at 37° C. to allow plasmid input digestion. Quantification of extracellular HBV DNA with direct qPCR was performed as previously described. To avoid unspecific detection of HBV plasmid and to confirm plasmid digestion, specific primers designed across plasmid backbone and HBV sequence were added as controls (HBV-CNT-gt-F:5′-[…]-3′ (SEQ ID No. 3), HBV-CNT-gt-R:5′-[…]-3′(SEQ ID No. 4)). Antiviral activity data for each genotype are reported as EC50 mean value. Moreover the EC50 shift value is indicated, corresponding to the ratio between the observed EC50 and the EC50 for genotype D, which is used as reference genotype (see RESULTS, Table 2 legend). Excel and Graphpad Prism programs are typically used for data elaboration and EC50 calculation.

Another test deals with HBV genotype A2. The description is as above. It is filed as cell-based.
Source text: as §1, §2, §3

The subject of a further test is HBV genotype B2. The test is described as above. The format is cell-based.
Source text: as §1, §2, §3

A further test deals with HBV genotype C2. The test is described as above. The format is cell-based.
Source text: as §1, §2, §3

For the next test, the system named is HBV genotype D. Described as above. The format is cell-based.
Source text: as §1, §2, §3

Test [1] relates to HBV core protein variant T128I. Nature of the test: Antiviral effect against core variants, transfected HepG2 cells. The format is cell-based, HBV genotype D. As to the method:
as §1, §3
(§4) The experimental procedure for antiviral effect against HBV core protein variants was similar to the one previously described for antiviral effect on HBV A-E Genotypes. Different core point mutations (F23Y, F110I, I105T, L37Q, T33N, T33P, T128I, V124G, Y118F) were selected based on their ability to reduce potency of CAMs currently in development (literature data) and introduced in the plasmids containing the HBV genome of genotype D (pcDNA3.1-HBV1.1-D, described above). The following list of plasmids was generated by site-directed mutagenesis of the parent plasmid pcDNA3.1-HBV1.1-D (p26 in J Virol. 2010, 84, 3879-88): pcDNA3.1-HBV1.1-D-CoreF23Y, pcDNA3.1-HBV1.1-D-CoreF110I, pcDNA3.1-HBV1.1-D-Core 1105 T, pcDNA3.1-HBV1.1-D-CoreL37Q, pcDNA3.1-HBV1.1-D-CoreT33N, pcDNA3.1-HBV1.1-D-CoreT33P, pcDNA3.1-HBV1.1-D-CoreT128I, pcDNA3.1-HBV1.1-D-CoreV124G, pcDNA3.1-HBV1.1-D-CoreY118F (point mutations in the nucleotide codon relative to the indicated core aminoacid substitution are the followings: TTC/TAC for F23Y, TTT/ATT for F110I, ATT/ACT for I105T, CTG/CAG for L37Q, ACC/AAC for T33N, ACC/CCC for T33P, ACT/ATT for T128I, GTG/GGG for V124G, TAT/TTT for Y118F). Antiviral activity data for each variant are reported as EC50 mean value and EC50 shift compared to wild type (see RESULTS, Table 4 legend). Excel and Graphpad Prism programs are typically used for data elaboration and EC50 calculation.

Test [2] relates to HBV core protein variant Y118F. The test is described as above. It is filed as cell-based, HBV genotype D. As to the method:
as §1, §3, §4

For test [3], the system named is HBV core protein variant T33P. Described as above. It is filed as cell-based, HBV genotype D. How it is done:
as §1, §3, §4

Test [4] relates to HBV core protein variant F23Y. Described as above. The format is cell-based, HBV genotype D. As to the method: as §1, §3, §4
Test [5] deals with HBV core protein variant I105T. Described as above. It is filed as cell-based, HBV genotype D. As to the method:
as §1, §3, §4

For test [6], the system named is HBV core protein variant V124G. The test is described as above. It is filed as cell-based, HBV genotype D. As to the method:
as §1, §3, §4

The test system of test [7] is HBV core protein variant F110I. The test is described as above. The format is cell-based, HBV genotype D. How it is done:
as §1, §3, §4

The subject of test [8] is HBV core protein variant L37Q. The test is described as above. It is filed as cell-based, HBV genotype D. How it is done: as §1, §3, §4
Test [9] deals with HBV core protein variant T33N. The test is described as above. The format is cell-based, HBV genotype D. As to the method: as §1, §3, §4

Consider `Cc1cc(NC(=O)c2c3c(cn2C)S(=O)(=O)N[C@H]2CN(C(=O)C(=O)N[C@@H](C)C(F)(F)F)C[C@H]2CO3)ccc1F` [Example E15, (3aR,10aR)—N-(4-fluoro-3-methylphenyl)-7-methyl-2-(2-oxo-2-(((S)-1,1,1-trifluoropropan-2-yl)amino)acetyl)-2,3,3a,4,10,10a-hexahydro-1H,7H-dipyrrolo[3,4-b:3′,4′-f][1,4,5]oxathiazocine-8-carboxamide 5,5-dioxide], for which the EC50 came to 1.79 ± 1.08 nM in the test on HBV genotype E; 2.14 ± 0.43 nM in the test on HBV genotype A2; 1.58 ± 0.7 nM in the test with HBV genotype B2; 0.72 ± 0.55 nM in the test on HBV genotype C2; 0.94 ± 0.49 nM in the test with HBV genotype D; 8.91 ± 5.85 nM in test [1]. Also, the EC50 amounted to 6.37 ± 1.84 nM in [2]; 1.68 ± 0.37 nM in test [3]; 6.33 ± 0.94 nM in test [4]; 3.22 ± 1.45 nM in [5]; 6.8 ± 2.08 nM in test [6]; 1.12 ± 0.3 nM in test [7]. The EC50 came to 8.72 ± 3.76 nM in [8] and 46.9 ± 21.1 nM in test [9].
